Converted amounts (≈) assume the structure as drawn. The source made the active and inactive calls. The rule behind the calls is not given here.
How the values were obtained:
[1] = (§1) Cytotoxicity against human A549 cells; format: toxicity, cell-based; conditions: A549 cells
[2] = system: Staphylococcus aureus; assay: Antibacterial activity against Staphylococcus aureus; format: functional; conditions: Staphylococcus aureus; for MIC: read-out: MIC; for MIC80: read-out: MIC80
[3] = system: Pseudomonas aeruginosa; assay: Antibacterial activity against Pseudomonas aeruginosa PAO1 harbouring delta6 mutant with pore; format: functional
[4] = system: Pseudomonas aeruginosa; assay: Antibacterial activity against Pseudomonas aeruginosa PAO1 harbouring delta6 mutant; format: functional
[5] = system: Staphylococcus aureus; assay: Antibacterial activity against Staphylococcus aureus ATCC 25923; format: functional
[6] = system: A549; assay: as §1; format: toxicity, cell-based; conditions: a549
[7] = system: Escherichia coli; assay: Antibacterial activity against wild type Escherichia coli harbouring pore; format: functional
[8] = system: Escherichia coli; assay: Antibacterial activity against Escherichia coli; format: functional
[9] = system: Escherichia coli; assay: Antibacterial activity against […] Escherichia coli harbouring TolC-deficient mutant; format: functional
[10] = system: Pseudomonas aeruginosa; assay: Antibacterial activity against Pseudomonas aeruginosa PAO1; format: functional
[11] = system: Escherichia coli; assay: Antibacterial activity against […] Escherichia coli harbouring TolC-deficient mutant with pore; format: functional
[12] = system: Pseudomonas aeruginosa; assay: Antibacterial activity against Pseudomonas aeruginosa PAO1 harbouring pore; format: functional
[13] = system: Staphylococcus aureus; assay: Antibacterial activity against Staphylococcus aureus ATCC 215; format: functional
[14] = system: Staphylococcus aureus; assay: Bacteriostatic activity against Staphylococcus aureus ATCC 25923 at MIC by time kill assay; format: functional, organism-based
[15] = system: Staphylococcus aureus; assay: Antibacterial activity against Staphylococcus aureus ATCC 223; format: functional
[16] = system: Staphylococcus aureus; assay: Antibacterial activity against Staphylococcus aureus ATCC 219; format: functional
[17] = system: Staphylococcus aureus; assay: Antibacterial activity against Staphylococcus aureus ATCC 217; format: functional
[18] = system: Staphylococcus aureus; assay: Bacteriostatic activity against Staphylococcus aureus ATCC 25923 at 4 times MIC by time kill assay; format: functional, organism-based
[19] = system: Staphylococcus aureus; assay: Antibacterial activity against Staphylococcus aureus ATCC 216; format: functional
[20] = system: Staphylococcus aureus; assay: Antibacterial activity against Staphylococcus aureus ATCC 701; format: functional
[21] = system: Staphylococcus aureus; assay: Antibacterial activity against Staphylococcus aureus ATCC 711; format: functional
[22] = system: Staphylococcus aureus; assay: Bactericidal activity against Staphylococcus aureus ATCC 25923 at 16 times MIC measured after 7 to 24 hrs by time kill assay; format: functional, organism-based; conditions: time 7-24 hrs
[23] = system: Staphylococcus aureus; assay: Antibacterial activity against Staphylococcus aureus ATCC 716; format: functional

O=C(c1ccco1)N(CCCn1ccnc1)c1nc2c(F)cc(F)cc2s1
CC50 [1]: 93.7 µM | MIC [2]: 16.5 µM (≈ 6.41 µg/mL)

Cc1cc(Cl)cc2sc(N(CCCn3ccnc3)CS(=O)(=O)c3ccccc3)nc12
CC50 [1]: 23.3 µM | MIC80 [2]: 2.6 µM (≈ 1.2 µg/mL)

Cc1cc(Cl)cc2sc(N(CCCn3ccnc3)Cc3ccccc3)nc12
CC50 [1]: 33.3 µM | MIC [3]: 3.2 µM (≈ 1.27 µg/mL) | MIC80 [2]: 5.9 µM (≈ 2.34 µg/mL) | MIC [4]: > 200 µM

O=C(O)c1cn(C2CC2)c2cc(N3CCNCC3)c(F)cc2c1=O [CIPROFLOXACIN]
MIC [5]: < 0.9 µM

Cc1cc(Cl)cc2sc(N(CCCn3ccnc3)C(=O)CN)nc12
MIC [2]: 100 µM (≈ 36.4 µg/mL)

Cc1cc(Cl)cc2sc(NCCCn3ccnc3)nc12
CC50 [1]: 111 µM | MIC [2]: 19.8 µM (≈ 6.08 µg/mL)

Cc1cc(Cl)cc2sc(N(CCCn3ccnc3)C(=O)C3(C)CC3)nc12
CC50 [6]: 54.6 µM | MIC [2]: 3.3 µM (≈ 1.28 µg/mL)

Cc1cc(Cl)cc2sc(N(CCCn3ccnc3)C(=O)c3ccccn3)nc12
CC50 [6]: 44.5 µM | MIC [2]: 7.4 µM (≈ 3.05 µg/mL)

Cc1cc(Cl)cc2sc(N(CCCn3ccnc3)CC3CC3)nc12
CC50 [1]: 65.6 µM | MIC80 [2]: 5.9 µM (≈ 2.13 µg/mL)

Cc1cc(Cl)cc2sc(N(CCCn3ccnc3)CS(=O)(=O)c3cccs3)nc12
CC50 [1]: 26.3 µM | MIC80 [2]: 3.9 µM (≈ 1.82 µg/mL)

Cc1cc(C(=O)N(CCCn2ccnc2)c2nc3c(C)cc(Cl)cc3s2)oc1C
CC50 [6]: 52.1 µM | MIC [2]: 3.9 µM (≈ 1.67 µg/mL)

Cc1cc(Cl)cc2sc(N(CCCn3ccnc3)C(=O)c3ccoc3)nc12
CC50 [6]: 53.4 µM | MIC [2]: 2.6 µM (≈ 1.04 µg/mL)

CC[C@H]1OC(=O)[C@H](C)[C@@H](O[C@H]2C[C@@](C)(OC)[C@@H](O)[C@H](C)O2)[C@H](C)[C@@H](O[C@@H]2O[C@H](C)C[C@H](N(C)C)[C@H]2O)[C@](C)(O)C[C@@H](C)C(=O)[C@H](C)[C@@H](O)[C@]1(C)O [ERYTHROMYCIN]
MIC [7]: 4 µM (≈ 2.94 µg/mL) | MIC [8]: 64 µM (≈ 47 µg/mL) | MIC [9]: 2 µM (≈ 1.47 µg/mL) | MIC [10]: 128 µM (≈ 93.9 µg/mL) | MIC [3]: 0.063 µM (≈ 0.0462 µg/mL) | MIC [4]: 8 µM (≈ 5.87 µg/mL)

Cc1nc(Cl)cc2sc(N(CCCn3ccnc3)C(=O)c3ccco3)nc12
MIC [2]: > 100 µM

Cc1cc(Cl)cc2sc(N(CCCn3ccnc3)C(=O)c3ccc[nH]3)nc12
MIC [11]: 0.78 µM (≈ 0.312 µg/mL) | MIC [7]: > 200 µM | CC50 [6]: > 100 µM | MIC [8]: > 200 µM | MIC [9]: 1.56 µM (≈ 0.624 µg/mL) | MIC [12]: > 100 µM | MIC [10]: > 100 µM | MIC [2]: 1.7 µM (≈ 0.68 µg/mL) | MIC [4]: > 100 µM

Cc1cccc2sc(N(CCCn3ccnc3)C(=O)c3ccco3)nc12
CC50 [1]: 84.7 µM | MIC [2]: 7.4 µM (≈ 2.71 µg/mL)

Cc1c(Cl)ccc2sc(N(CCCn3ccnc3)C(=O)c3ccco3)nc12
CC50 [1]: 27.4 µM | MIC [2]: 2.6 µM (≈ 1.04 µg/mL)

Cc1cc(Cl)cc2sc(N(CCCn3ccnc3)C(=O)C3CC3)nc12
MIC [13]: 14.8 µM (≈ 5.55 µg/mL) | Activity [14]: Active | MIC [11]: < 0.2 µM | MIC [15]: 4.4 µM (≈ 1.65 µg/mL) | MIC [7]: 200 µM (≈ 75 µg/mL) | MIC [5]: 3.9 µM (≈ 1.46 µg/mL) | MIC [16]: 2.9 µM (≈ 1.09 µg/mL) | MIC [17]: 14.8 µM (≈ 5.55 µg/mL) | Activity [18]: Active | MIC [8]: > 200 µM | MIC [19]: 4.4 µM (≈ 1.65 µg/mL) | MIC [20]: 4.4 µM (≈ 1.65 µg/mL) | MIC [9]: < 0.2 µM | MIC [12]: > 200 µM | MIC [10]: > 200 µM | MIC [3]: 1.56 µM (≈ 0.585 µg/mL) | MIC [2]: 3.9 µM (≈ 1.46 µg/mL) | MIC [21]: 4.4 µM (≈ 1.65 µg/mL) | Activity [22]: Active | MIC [4]: 50 µM (≈ 18.7 µg/mL) | MIC [23]: 4.4 µM (≈ 1.65 µg/mL)

Cc1ccc(C(=O)N(CCCn2ccnc2)c2nc3c(C)cc(Cl)cc3s2)s1
CC50 [6]: 34.1 µM | MIC [2]: 16.5 µM (≈ 7.11 µg/mL)

— ChEMBL document CHEMBL5257105, “Identification and structure-activity relationships for a series of N, N-disubstituted 2-aminobenzothiazoles as potent inhibitors of S. aureus” (Bioorg Med Chem Lett, 2023)
